Test in all cases: NCI tumour cell line growth inhibition, 48 h
Assay [1] concerns OVCAR-4 ovarian.
In assay [2] the test system is OVCAR-8 ovarian.
Assay [3] concerns SK-MEL-5 melanoma.
For assay [4], the system named is SR leukemia.
Assay [5] concerns SF-539 CNS.
For assay [6], the system named is NCI-H522 lung.
Assay [7] relates to COLO 205 colon.
Assay [8] has as its system SW-620 colon.
Assay [9] relates to SNB-75 CNS.
Assay [10] concerns NCI-H460 lung.

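1) Cells in 96-well plates. 2) Compound, 48 h, 5 concentrations. 3) Linear interpolation between surrounding doses. 4) Unreached endpoint = highest concentration. GI50 marks 50% less growth. TGI is the concentration that stops growth completely.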 Bounds are passed on as bounds.

In the case of `O=S(=O)(/N=c1\scc(-c2ccccc2)n1-c1ccccc1)c1ccc(N2N=C3c4ccccc4CC3C2c2ccc(Cl)cc2)cc1` (centres undefined), the GI50 in assay [1] was 63.8 µM; in assay [2], 36.1 µM; in assay [3], 25.2 µM; in [4], 17.3 µM; in assay [5], 62.6 µM; in [6], 22.7 µM. Besides, the GI50 in [7] is 23.6 µM; in assay [8], 35 µM; in assay [9] it was more than 100 µM; in assay [10] it was more than 100 µM. Moreover, the TGI in assay [1] is more than 100 µM; in [2] it was more than 100 µM; in [3] it was 75 µM; in assay [4], 45.9 µM; in assay [5], more than 100 µM; in assay [6] it was 82.3 µM. The TGI in [7] is 54.9 µM; in assay [8], more than 100 µM; in [9], more than 100 µM; in [10], more than 100 µM.
Take `O=C(NCC1CC1)c1ccc(-c2cccc(C(=O)NC3CC3)c2)cc1`: the GI50 in assay [1] is more than 25 µM; in [2], more than 25 µM; in assay [3] it was more than 25 µM; in assay [4], more than 23.3 µM; in assay [5] it was more than 25 µM; in assay [6], more than 25 µM. The GI50 in assay [7], in assay [8], in assay [9] and in assay [10] was more than 25 µM each time. The TGI in assay [1], in assay [2], in assay [3], in assay [4], in [5] and in assay [6] was more than 25 µM throughout. Also, the TGI in assay [7], in [8], in assay [9] and in [10] was more than 25 µM in each case.
On to `COc1ccc(C2=Nn3c(nnc3-c3cc(Cl)cc(Cl)c3Cl)SC2)cc1`, for which the GI50 in assay [1] is 0.805 µM; in [2] it was 0.862 µM; in assay [3], 0.273 µM; in [4], 0.826 µM; in [5] it was 0.225 µM; in assay [6] it was 0.256 µM. Further, the GI50 is 0.792 µM in assay [7], 0.381 µM in assay [8], 0.335 µM in [9] and 0.502 µM in assay [10]. The TGI in assay [1] was more than 100 µM; in assay [2], more than 40.7 µM; in assay [5] it was 0.741 µM; in assay [6], 2.51 µM; in assay [7], 7.15 µM; in assay [8], more than 100 µM. In addition, the TGI in assay [10] is more than 100 µM.
Take `CCOC(=O)Oc1c(OC)cc(C(=O)c2ccc(OC)c(O)c2OC)cc1OC`: the GI50 in assay [1] is 6.04 µM; in assay [2], 3.36 µM; in [3] it was 0.475 µM; in assay [4], 0.381 µM; in assay [5], 0.637 µM; in assay [6] it was 0.311 µM. Further, the GI50 in [7] is 12.5 µM; in assay [8] it was 0.489 µM; in assay [9], 0.534 µM; in assay [10], 1.78 µM. Moreover, the TGI is more than 100 µM in assay [1]; more than 100 µM in [2]; 55.6 µM in [3]; more than 100 µM in [4]; 5.83 µM in assay [5]; 1.99 µM in assay [6]. The TGI in [7] is 63.5 µM; in [8], more than 100 µM; in [9], more than 100 µM; in assay [10], more than 100 µM.
Take `O=[N+]([O-])c1ccccc1N=Nc1c(O)[nH]c2cccc(C(F)(F)F)c12`: the TGI in assay [1] was 52 µM; in assay [2] it was more than 100 µM; in assay [3], more than 100 µM; in [4] it was 15.7 µM; in assay [6], 69.3 µM; in [7] it was more than 100 µM. In addition, the TGI in assay [8], in [9] and in [10] was more than 100 µM each time.
On to `COc1cccc(-c2nc3cc(NC(=O)c4ccc(Cl)c(C#N)c4)ccc3o2)c1`, for which the GI50 was 1.8 µM in assay [1]; 1.79 µM in assay [3]; 35.1 µM in assay [4]; 1.68 µM in [5]; 1.68 µM in [6]; 5.77 µM in assay [7]. Moreover, the GI50 in assay [8] was 4.11 µM; in assay [9] it was 2.48 µM; in [10], 2.12 µM. Also, the TGI in [1] is 3.43 µM; in assay [3], 4.2 µM; in assay [4], more than 100 µM; in assay [5], 3.37 µM; in [6], 4.54 µM; in [7] it was more than 100 µM. Further, the TGI in assay [8] was more than 100 µM; in [9], 7.15 µM; in assay [10], 4.91 µM.
`Clc1ccc(-c2cn3ccnc3c(-c3ccc(Cl)cc3)n2)cc1`: the GI50 in assay [2] was 16 µM; in assay [3] it was 16.6 µM; in assay [5], 26.2 µM; in assay [6] it was more than 100 µM; in [7] it was 27.6 µM; in [8], 7.42 µM. Also, the figures for the GI50 in assay [9] and in [10] were more than 100 µM and 19.9 µM, respectively. Moreover, the TGI in [2] was more than 100 µM; in assay [3], 43.5 µM; in [4] it was 4.02 µM; in [5] it was more than 100 µM; in [6], more than 100 µM; in assay [7], more than 100 µM. The TGI in [8], in assay [9] and in assay [10] was more than 100 µM each time.
As for `CC(=O)OCc1c2ccccc2c(C)c2c1cc(F)c1ccccc12`, the TGI is 77.9 µM in assay [1]; 47.4 µM in [2]; 69.6 µM in assay [3]; more than 100 µM in [4]; 59.4 µM in [5]; 25.6 µM in [6]. For the same compound, the TGI in assay [7] is 36.4 µM; in assay [8], 67.3 µM; in assay [9] it was 58.4 µM.
As to `O=C(COc1ccccc1Cl)N1N=C(c2ccc(Cl)cc2)CC1(O)c1ccccc1` (centres undefined), the TGI in assay [1], in assay [2], in assay [4], in assay [5], in assay [6] and in assay [7] was more than 100 µM each time. The TGI in [8], in assay [9] and in assay [10] was more than 100 µM throughout.

For the origin of these results see PubChem BioAssay (NCI).
